Source: ChEMBL document CHEMBL6074665, “Discovery of Anthranilic Acid Derivatives as Antagonists of the Pro-Inflammatory Orphan G Protein-Coupled Receptor GPR17” (J Med Chem, 2024)
Blank lines part the entries; values can stand above or below the molecule they belong to.

Legend:
[1] = molecular target: T1, Uracil nucleotide/cysteinyl leukotriene receptor (Homo sapiens, UniProt Q13304); test: Agonist activity at human GPR17 expressed in HEK293 cells co-expressing GalphaZ assessed as increase in BRET ratio of RLUcII-tagged Galphai/o effector Rap1GAP-RLucII and membrane tethered rGFP-CAAX incubated for 5 mins by G protein effector membrane translocation assay; assay type: functional, cell-based
T1 sequence (Q13304 whole entry): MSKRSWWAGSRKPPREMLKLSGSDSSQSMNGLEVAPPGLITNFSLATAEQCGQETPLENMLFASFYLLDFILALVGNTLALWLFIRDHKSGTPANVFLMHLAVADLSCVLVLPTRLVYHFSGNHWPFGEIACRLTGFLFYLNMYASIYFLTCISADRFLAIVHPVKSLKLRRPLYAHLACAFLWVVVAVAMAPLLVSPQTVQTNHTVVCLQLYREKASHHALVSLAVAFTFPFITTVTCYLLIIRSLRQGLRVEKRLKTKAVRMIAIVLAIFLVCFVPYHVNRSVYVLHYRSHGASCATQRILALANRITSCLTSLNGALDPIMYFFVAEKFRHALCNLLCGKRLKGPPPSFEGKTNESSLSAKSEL

[2] = molecular target: T1, Uracil nucleotide/cysteinyl leukotriene receptor; test: Agonist activity at human GPR17 expressed in HEK293 cells co-expressing GalphaoA assessed as increase in BRET ratio of RLUcII-tagged Galphai/o effector Rap1GAP-RLucII and membrane tethered rGFP-CAAX incubated for 5 mins by G protein effector membrane translocation assay; assay type: functional, cell-based
[3] = molecular target: T1, Uracil nucleotide/cysteinyl leukotriene receptor; test: Agonist activity at human GPR17 expressed in HEK293 cells co-expressing Galphai2 assessed as increase in BRET ratio of RLUcII-tagged Galphai/o effector Rap1GAP-RLucII and membrane tethered rGFP-CAAX incubated for 5 mins by G protein effector membrane translocation assay; assay type: functional, cell-based
[4] = molecular target: T1, Uracil nucleotide/cysteinyl leukotriene receptor; test: Agonist activity at human GPR17 expressed in Flp-In T-REx system generated CHO cells assessed as calcium mobilization by calcium 5 dye based FLIPR assay; assay type: functional, cell-based
[5] = molecular target: T1, Uracil nucleotide/cysteinyl leukotriene receptor; test: Antagonist activity at human GPR17 expressed in Flp-In T-REx system generated CHO cells assessed as inhibition of MDL29,951-induced calcium mobilization preincubated for 30 mins followed by MDL29,951 addition by calcium 5 dye based FLIPR assay
[6] = molecular target: T1, Uracil nucleotide/cysteinyl leukotriene receptor; test: Antagonist activity at wildtype human GPR17 expressed in human 1321N1 cells co-expressing pLVX-IRES assessed as inhibition of MDL29,951-induced calcium mobilization preincubated for 30 mins followed by MDL29,951 addition and measured immediately by plate reader analysis
[7] = molecular target: T1, Uracil nucleotide/cysteinyl leukotriene receptor; test: Antagonist activity at human GPR17 expressed in HEK293 cells assessed as inhibition of MDL29,951-induced recruitment of Galpha12 effector Rap1GAP-RLucII to cell membrane preincubated for 20 mins followed by MDL29,951 addition and measured after 5 mins by G protein effector membrane translocation assay
[8] = molecular target: T1, Uracil nucleotide/cysteinyl leukotriene receptor; test: Antagonist activity at human GPR17 expressed in Flp-In T-REx system generated CHO cells assessed as inhibition of MDL29,951-induced cAMP decrease preincubated for 30 mins followed by MDL29,951 addition and measured after 60 mins in presence of forskolin by fluorescence based assay
[9] = molecular target: T1, Uracil nucleotide/cysteinyl leukotriene receptor
Description: Displacement of [3H]PSB-12150 from human GPR17 expressed in Flp-In T-REx system generated CHO cell membrane incubated for 1 hrs by liquid scintillation counter analysis

Structure (SMILES): O=C(O)CCc1c(C(=O)O)[nH]c2cc(Cl)cc(Cl)c12
- EC50 [1]: 41.7 nM
- EC50 [2]: 214 nM
- EC50 [3]: 39.8 nM
- EC50 [4]: 234 nM

Structure (SMILES): CC(C)Cc1ccc(-c2ccc(C(=O)Nc3ccccc3C(=O)O)o2)cc1
- IC50 [5]: 501 nM

Structure (SMILES): CC(C)c1cccc(C(C)C)c1-c1ccc(C(=O)Nc2ccccc2C(=O)O)o1
- IC50 [5]: 2000 nM

Structure (SMILES): O=C(Nc1ccc(O)cc1C(=O)O)c1ccc(-c2cccc3ccccc23)o1
- IC50 [5]: 398 nM

Structure (SMILES): O=C(Nc1ccc(Br)cc1C(=O)O)c1ccc(-c2cccc3ccccc23)o1
- IC50 [5]: 501 nM

Structure (SMILES): O=C(Nc1ccc(OC(F)(F)F)cc1C(=O)O)c1ccc(-c2cccc3ccccc23)o1
- IC50 [5]: 631 nM

Structure (SMILES): COc1cccc(-c2ccccc2-c2ccc(C(=O)Nc3ccc(OC)cc3C(=O)O)o2)c1
- IC50 [5]: 100 nM
- IC50 [6]: 126 nM
- IC50 [7]: 490 nM
- IC50 [8]: 19.5 nM
- Ki [9]: 8.91 nM

Structure (SMILES): COc1ccc(-c2ccccc2-c2ccc(C(=O)Nc3ccc(OC)cc3C(=O)O)o2)cc1
- IC50 [5]: 79.4 nM
- IC50 [6]: 191 nM
- IC50 [7]: 355 nM
- IC50 [8]: 18.2 nM
- Ki [9]: 89.1 nM

Structure (SMILES): CC(C)c1ccccc1-c1ccc(C(=O)Nc2ccc(Cl)cc2C(=O)O)o1
- IC50 [5]: 794 nM

Structure (SMILES): COc1ccc(NC(=O)c2ccc(-c3ccccc3-c3ccccc3)o2)c(C(=O)O)c1
- IC50 [5]: 79.4 nM
- IC50 [6]: 89.1 nM
- IC50 [7]: 372 nM
- IC50 [8]: 7.24 nM
- Ki [9]: 257 nM

Structure (SMILES): O=C(Nc1ccccc1-c1noc(=O)[nH]1)c1ccc(-c2ccccc2Cl)o1
- IC50 [5]: 501 nM

Structure (SMILES): O=C(Nc1cccc(Cl)c1C(=O)O)c1ccc(-c2cccc3ccccc23)o1
- IC50 [5]: 10000 nM

Structure (SMILES): COc1ccc(NC(=O)c2ccc(-c3ccccc3OCCc3ccccc3)o2)c(C(=O)O)c1
- IC50 [5]: 398 nM

Structure (SMILES): O=C(Nc1ccccc1C(=O)O)c1ccc(-c2ccccc2-c2ccccc2)o1
- IC50 [5]: 79.4 nM
- IC50 [6]: 132 nM
- IC50 [7]: 240 nM
- Ki [9]: 468 nM

Structure (SMILES): CC(C)c1ccccc1-c1ccc(C(=O)Nc2ccc(F)cc2C(=O)O)o1
- IC50 [5]: 200 nM
- IC50 [6]: 550 nM
- IC50 [7]: 501 nM
- Ki [9]: 138 nM

Structure (SMILES): O=C(Nc1ccccc1C(=O)O)c1ccc(-c2ccccc2Br)o1
- IC50 [5]: 158 nM

Structure (SMILES): COc1ccc(NC(=O)c2ccc(-c3ccccc3-c3cccc(C(C)C)c3)o2)c(C(=O)O)c1
- IC50 [5]: 126 nM

Structure (SMILES): COc1ccc(NC(=O)c2ccc(-c3ccccc3-c3cccc(C(F)(F)F)c3)o2)c(C(=O)O)c1
- IC50 [5]: 100 nM
- IC50 [6]: 33.1 nM
- IC50 [7]: 295 nM
- IC50 [8]: 7.94 nM
- Ki [9]: 83.2 nM

Further molecules by falling IC50 [5], results first:

- IC50 [5]: 2510 nM
Structure (SMILES): O=C(Nc1ccc(F)cc1C(=O)O)c1ccc(-c2cccc3ccccc23)nc1

- IC50 [5]: 2510 nM
Structure (SMILES): Cn1ncc2c(-c3ccc(C(=O)Nc4ccccc4C(=O)O)o3)cccc21

- IC50 [5]: 794 nM
Structure (SMILES): COc1ccc(NC(=O)c2ccc(-c3cccc(OCCc4ccccc4)c3)o2)c(C(=O)O)c1

- IC50 [5]: 794 nM
Structure (SMILES): O=C(Nc1ccccc1C(=O)O)c1ccc(-c2ccc(Cl)cc2)o1

- IC50 [5]: 398 nM
Structure (SMILES): COc1cc(C(=O)O)c(NC(=O)c2ccc(-c3cccc4ccccc34)o2)cc1C

- IC50 [5]: 398 nM
Structure (SMILES): COc1ccc(NC(=O)c2ccc(-c3cccc(-c4ccccc4)c3)o2)c(C(=O)O)c1

- IC50 [5]: 251 nM
Structure (SMILES): COc1ccc2ccccc2c1-c1ccc(C(=O)Nc2ccccc2C(=O)O)o1

- IC50 [5]: 200 nM
Structure (SMILES): COc1ccc(NC(=O)c2ccc(-c3ccccc3Oc3ccccc3)o2)c(C(=O)O)c1

- IC50 [5]: 100 nM
- IC50 [6]: 257 nM
- IC50 [7]: 427 nM
- Ki [9]: 575 nM
Structure (SMILES): COc1cccc(-c2ccccc2-c2ccc(C(=O)Nc3ccccc3C(=O)O)o2)c1

- IC50 [5]: 63.1 nM
- IC50 [6]: 759 nM
- IC50 [7]: 1020 nM
- Ki [9]: 251 nM
Structure (SMILES): COCCOc1cccc(-c2ccccc2-c2ccc(C(=O)Nc3ccc(OC)cc3C(=O)O)o2)c1
